Common to all, as to type: functional
Experiment [1] relates to Staphylococcus aureus. The experiment is described as follows: Antibacterial activity against methicillin-susceptible Staphylococcus aureus 69856 assessed as inhibition of bacterial growth incubated for 18 to 24 hrs by broth microdilution method. A general note: Dilution methods test growth across graded concentrations, often in twofold steps.
Experiment [2] relates to Staphylococcus aureus. In words: Antibacterial activity against methicillin-susceptible Staphylococcus aureus 39249 assessed as inhibition of bacterial growth incubated for 18 to 24 hrs by broth microdilution method.
Experiment [3] deals with Enterococcus faecalis. In words: Antibacterial activity against Enterococcus faecalis ATCC 29212 assessed as inhibition of bacterial growth incubated for 18 to 24 hrs by broth microdilution method.
A further experiment deals with Staphylococcus hominis. The experiment is described as follows: Antibacterial activity against linezolid and methicillin-resistant Staphylococcus hominis alpha26 assessed as inhibition of bacterial growth incubated for 18 to 24 hrs by broth microdilution method.
Experiment [4] deals with Enterococcus faecalis. The experiment is described as follows: Antibacterial activity against linezolid and […] 4150 assessed as inhibition of bacterial growth incubated for 18 to 24 hrs by broth microdilution method.
Experiment [5] deals with Staphylococcus epidermidis. The experiment is described as follows: Antibacterial activity against methicillin-susceptible Staphylococcus epidermidis 3226 assessed as inhibition of bacterial growth incubated for 18 to 24 hrs by broth microdilution method.
In experiment [6] the test system is Staphylococcus aureus. The experiment is described as follows: Antibacterial activity against Staphylococcus aureus ATCC 29213 assessed as inhibition of bacterial growth incubated for 18 to 24 hrs by broth microdilution method.
Experiment [7] concerns Staphylococcus aureus. In words: Antibacterial activity against linezolid and methicillin-resistant Staphylococcus aureus SAU-1 assessed as inhibition of bacterial growth incubated for 18 to 24 hrs by broth microdilution method.
Experiment [8] concerns Staphylococcus epidermidis. In words: Antibacterial activity against linezolid and methicillin-resistant Staphylococcus epidermidis G1027 assessed as inhibition of bacterial growth incubated for 18 to 24 hrs by broth microdilution method.
A further experiment relates to Enterococcus faecium. In words: Antibacterial activity against linezolid and vancomycin-resistant Enterococcus faecium VRE2 assessed as inhibition of bacterial growth incubated for 18 to 24 hrs by broth microdilution method.
Experiment [9] has as its system Staphylococcus aureus. The experiment is described as follows: Antibacterial activity against methicillin-resistant Staphylococcus aureus 44674 assessed as inhibition of bacterial growth incubated for 18 to 24 hrs by broth microdilution method.
The nature of experiment [10]: Antioxidant activity assessed as DPPH scavenging activity by measuring mmol of Trolox equivalent antioxidant capacity incubated for 40 mins. (The DPPH test is a chemical assay of radical scavenging.)
A short description of experiment [11]: Antioxidant activity assessed as ABTS scavenging activity by measuring mmol of Trolox equivalent antioxidant capacity incubated for 6 mins.

≈ marks a conversion by molar mass, not a printed value. Where only a bound is given, the exact number is not on record here.

For twelve molecules, MIC and Activity results are on record in ChEMBL document CHEMBL4130476, “4-Alkyliden-azetidinones modified with plant derived polyphenols: Antibacterial and antioxidant properties” (2017).

As usually defined, the MIC is the lowest concentration that inhibits growth of the organism. Regarding `C[C@@H](OC(=O)/C=C/c1ccc2c(c1)OCO2)[C@H]1C(=O)N/C1=C\C(=O)OCc1ccccc1`, the MIC in the experiment on Staphylococcus aureus [1] was more than 128 µg/mL; in the experiment on Staphylococcus aureus [2], more than 128 µg/mL; in the experiment with Enterococcus faecalis [3] it was more than 128 µg/mL; with Staphylococcus hominis, 128 µg/mL (≈ 294 µM); in the experiment with Enterococcus faecalis [4], more than 128 µg/mL; in [5], more than 128 µg/mL. For the same molecule, the MIC (in the experiment with Staphylococcus aureus [6]; with Staphylococcus aureus [7]; in experiment [8]; with Enterococcus faecium; in the experiment with Staphylococcus aureus [9]) was more than 128 µg/mL throughout.

As for `CO/N=C(\C(=O)N[C@@H]1C(=O)N2C(C(=O)O)=C(COC(N)=O)CS[C@H]12)c1ccco1` [CEFUROXIME], the MIC in the experiment with Staphylococcus aureus [1] is 1 µg/mL (≈ 2.36 µM); with Staphylococcus aureus [2], 2 µg/mL (≈ 4.71 µM); in the experiment on Enterococcus faecalis [3], more than 128 µg/mL; in the experiment on Staphylococcus hominis, 8 µg/mL (≈ 18.9 µM); with Enterococcus faecalis [4] it was more than 128 µg/mL; in experiment [5], 0.5 µg/mL (≈ 1.18 µM). Besides, the MIC is 2 µg/mL (≈ 4.71 µM) in the experiment on Staphylococcus aureus [6]; more than 128 µg/mL in the experiment on Staphylococcus aureus [7]; 32 µg/mL (≈ 75.4 µM) in [8]; more than 128 µg/mL in the experiment on Enterococcus faecium; 8 µg/mL (≈ 18.9 µM) in the experiment with Staphylococcus aureus [9].

On to `C[C@@H](OC(=O)c1ccc2c(c1)OCO2)[C@H]1C(=O)N/C1=C\C(=O)OCc1ccccc1`, for which the MIC with Staphylococcus aureus [1] was 8 µg/mL (≈ 19.5 µM); in the experiment with Staphylococcus aureus [2] it was 4 µg/mL (≈ 9.77 µM); in the experiment on Enterococcus faecalis [3], more than 128 µg/mL; in the experiment with Staphylococcus hominis, 4 µg/mL (≈ 9.77 µM); in the experiment on Enterococcus faecalis [4], more than 128 µg/mL; in experiment [5], 8 µg/mL (≈ 19.5 µM). Besides, the MIC in the experiment with Staphylococcus aureus [6] is 2 µg/mL (≈ 4.89 µM); with Staphylococcus aureus [7] it was 2 µg/mL (≈ 4.89 µM); in [8] it was 4 µg/mL (≈ 9.77 µM); with Enterococcus faecium, more than 128 µg/mL; in the experiment with Staphylococcus aureus [9], 4 µg/mL (≈ 9.77 µM). Also, the Activity in experiment [10] worked out at 0.012 mmolequiv.

With `C[C@@H](OC(=O)/C=C/c1ccccc1O)[C@H]1C(=O)N/C1=C\C(=O)OCc1ccccc1`, the MIC was more than 128 µg/mL in the experiment on Staphylococcus aureus [1]; more than 128 µg/mL in the experiment with Staphylococcus aureus [2]; more than 128 µg/mL in the experiment with Enterococcus faecalis [3]; 2 µg/mL (≈ 4.91 µM) in the experiment with Staphylococcus hominis; more than 128 µg/mL with Enterococcus faecalis [4]; more than 128 µg/mL in [5]. Moreover, the minimum inhibitory concentration (MIC) is 2 µg/mL (≈ 4.91 µM) with Staphylococcus aureus [6]; 1 µg/mL (≈ 2.45 µM) in the experiment with Staphylococcus aureus [7]; more than 128 µg/mL in experiment [8]; more than 128 µg/mL in the experiment with Enterococcus faecium; more than 128 µg/mL in the experiment with Staphylococcus aureus [9]. Also, the Activity in experiment [10] was 0.002 mmolequiv; in experiment [11], 0.143 mmolequiv.

For `COc1cc(/C=C/C(=O)O[C@H](C)[C@H]2C(=O)N/C2=C\C(=O)OCc2ccccc2)cc(OC)c1O`, the MIC is more than 128 µg/mL in the experiment on Staphylococcus aureus [1]; 8 µg/mL (≈ 17.1 µM) in the experiment with Staphylococcus aureus [2]; more than 128 µg/mL in the experiment on Enterococcus faecalis [3]; 4 µg/mL (≈ 8.56 µM) in the experiment on Staphylococcus hominis; more than 128 µg/mL with Enterococcus faecalis [4]; more than 128 µg/mL in experiment [5]. The MIC is more than 128 µg/mL with Staphylococcus aureus [6]; 8 µg/mL (≈ 17.1 µM) with Staphylococcus aureus [7]; more than 128 µg/mL in [8]; more than 128 µg/mL in the experiment with Enterococcus faecium; 8 µg/mL (≈ 17.1 µM) in the experiment with Staphylococcus aureus [9]. Further, the Activity stood at 0.191 mmolequiv in experiment [10] and 0.232 mmolequiv in experiment [11].

Turning to `C[C@@H](OC(=O)/C=C/c1ccc(O)cc1)[C@H]1C(=O)N/C1=C\C(=O)OCc1ccccc1`, the MIC in the experiment with Staphylococcus aureus [1] was 8 µg/mL (≈ 19.6 µM); with Staphylococcus aureus [2], 4 µg/mL (≈ 9.82 µM); in the experiment on Enterococcus faecalis [3], more than 128 µg/mL; in the experiment with Staphylococcus hominis it was 4 µg/mL (≈ 9.82 µM); in the experiment with Enterococcus faecalis [4], 64 µg/mL (≈ 157 µM); in experiment [5] it was 8 µg/mL (≈ 19.6 µM). The MIC in the experiment with Staphylococcus aureus [6] was 8 µg/mL (≈ 19.6 µM); in the experiment on Staphylococcus aureus [7], 4 µg/mL (≈ 9.82 µM); in experiment [8] it was 8 µg/mL (≈ 19.6 µM); in the experiment on Enterococcus faecium it was more than 128 µg/mL; in the experiment with Staphylococcus aureus [9], 4 µg/mL (≈ 9.82 µM). Also, the Activity in experiment [10] was 0.003 mmolequiv; in experiment [11], 0.053 mmolequiv.

In the case of `C[C@@H](OC(=O)/C=C/c1ccc(O)c(O)c1)[C@H]1C(=O)N/C1=C\C(=O)OCc1ccccc1`, the MIC (in the experiment with Staphylococcus aureus [1]; in the experiment with Staphylococcus aureus [2]; with Enterococcus faecalis [3]; with Staphylococcus hominis; with Enterococcus faecalis [4]; in experiment [5]) was more than 128 µg/mL in each case. For the same molecule, the MIC (with Staphylococcus aureus [6]; with Staphylococcus aureus [7]; in [8]; in the experiment with Enterococcus faecium; in the experiment with Staphylococcus aureus [9]) was more than 128 µg/mL each time. The results for the Activity in experiment [10] and in experiment [11] were 1.67 mmolequiv and 1.03 mmolequiv, respectively.

`C[C@@H](OC(=O)c1ccc(O)c(O)c1)[C@H]1C(=O)N/C1=C\C(=O)OCc1ccccc1`: the MIC in the experiment on Staphylococcus aureus [1] was 4 µg/mL (≈ 10.1 µM); with Staphylococcus aureus [2], 4 µg/mL (≈ 10.1 µM); with Enterococcus faecalis [3], 128 µg/mL (≈ 322 µM); with Staphylococcus hominis, more than 128 µg/mL; in the experiment on Enterococcus faecalis [4], 128 µg/mL (≈ 322 µM); in experiment [5], 16 µg/mL (≈ 40.3 µM). Also, the MIC was determined as 16 µg/mL (≈ 40.3 µM) in the experiment on Staphylococcus aureus [6]; 16 µg/mL (≈ 40.3 µM) with Staphylococcus aureus [7]; 16 µg/mL (≈ 40.3 µM) in experiment [8]; 128 µg/mL (≈ 322 µM) in the experiment on Enterococcus faecium; 8 µg/mL (≈ 20.1 µM) with Staphylococcus aureus [9]. Besides, the Activity in experiment [10] stood at 2.59 mmolequiv; in [11], 1.3 mmolequiv.

Take `COc1cc(/C=C/C(=O)O[C@H](C)[C@H]2C(=O)N/C2=C\C(=O)OCc2ccccc2)ccc1O`: the MIC is 8 µg/mL (≈ 18.3 µM) in the experiment with Staphylococcus aureus [1]; 8 µg/mL (≈ 18.3 µM) in the experiment on Staphylococcus aureus [2]; more than 128 µg/mL in the experiment on Enterococcus faecalis [3]; 4 µg/mL (≈ 9.14 µM) in the experiment with Staphylococcus hominis; 8 µg/mL (≈ 18.3 µM) in the experiment with Enterococcus faecalis [4]; 8 µg/mL (≈ 18.3 µM) in experiment [5]. Also, the MIC in the experiment with Staphylococcus aureus [6] was 4 µg/mL (≈ 9.14 µM); with Staphylococcus aureus [7], 4 µg/mL (≈ 9.14 µM); in [8], 4 µg/mL (≈ 9.14 µM); in the experiment on Enterococcus faecium, more than 128 µg/mL; in the experiment on Staphylococcus aureus [9] it was 4 µg/mL (≈ 9.14 µM). Also, the Activity in experiment [10] came out at 0.142 mmolequiv; in experiment [11], 0.284 mmolequiv.

`C[C@@H](OC(=O)c1ccc(O)cc1)[C@H]1C(=O)N/C1=C\C(=O)OCc1ccccc1`: the MIC was more than 128 µg/mL in the experiment with Staphylococcus aureus [1]; more than 128 µg/mL in the experiment with Staphylococcus aureus [2]; more than 128 µg/mL with Enterococcus faecalis [3]; 16 µg/mL (≈ 42 µM) with Staphylococcus hominis; more than 128 µg/mL with Enterococcus faecalis [4]; more than 128 µg/mL in [5]. Further, the MIC in the experiment with Staphylococcus aureus [6] is 2 µg/mL (≈ 5.24 µM); with Staphylococcus aureus [7], 2 µg/mL (≈ 5.24 µM); in experiment [8] it was more than 128 µg/mL; with Enterococcus faecium, more than 128 µg/mL; with Staphylococcus aureus [9], more than 128 µg/mL. For the same molecule, the values for the Activity in experiment [10] and in [11] were 0.007 mmolequiv and 0.01 mmolequiv, respectively.

Take `CN[C@H](CC(C)C)C(=O)N[C@H]1C(=O)N[C@@H](CC(N)=O)C(=O)N[C@H]2C(=O)N[C@H]3C(=O)N[C@H](C(=O)N[C@H](C(=O)O)c4cc(O)cc(O)c4-c4cc3ccc4O)[C@H](O)c3ccc(c(Cl)c3)Oc3cc2cc(c3O[C@@H]2O[C@H](CO)[C@@H](O)[C@H](O)[C@H]2O[C@H]2C[C@](C)(N)[C@H](O)[C@H](C)O2)Oc2ccc(cc2Cl)[C@H]1O` [VANCOMYCIN]: the MIC with Enterococcus faecalis [3] was 2 µg/mL (≈ 1.38 µM); in the experiment on Staphylococcus hominis it was 1 µg/mL (≈ 0.69 µM); in the experiment with Enterococcus faecalis [4], 0.25 µg/mL (≈ 0.173 µM); with Enterococcus faecium, more than 128 µg/mL.

`C[C@@H](OC(=O)c1cccc2c1OCO2)[C@H]1C(=O)N/C1=C\C(=O)OCc1ccccc1`: the MIC in the experiment with Staphylococcus aureus [1] is more than 128 µg/mL; in the experiment with Staphylococcus aureus [2], more than 128 µg/mL; in the experiment with Enterococcus faecalis [3], more than 128 µg/mL; in the experiment on Staphylococcus hominis, 8 µg/mL (≈ 19.5 µM); in the experiment with Enterococcus faecalis [4] it was more than 128 µg/mL; in experiment [5] it was more than 128 µg/mL. Also, the MIC in the experiment on Staphylococcus aureus [6] was 16 µg/mL (≈ 39.1 µM); in the experiment on Staphylococcus aureus [7], 2 µg/mL (≈ 4.89 µM); in experiment [8], more than 128 µg/mL; in the experiment on Enterococcus faecium it was more than 128 µg/mL; with Staphylococcus aureus [9], more than 128 µg/mL.
